SMILES strings stand for the structures. Activity calls are given as the source filed them. The calls are words filed in the database; no cut-off is given here.

For series [1], the system named is N2a. The series is described as follows: Antitumor activity against mouse N2a cells implanted in female ICR mouse model assessed as reduction in tumor weight at 20 mg/kg, ip measured upto 8 days (reference value: 0.9 +/-0.26 g). The following applies: time <= 8 day. Format: functional.
Series [2] can be described thus: Toxicity in female ICR mouse assessed as change in organ coefficient of kidney at 20 mg/kg, ip […] (reference value: 0.007). Conditions: in vivo. Format: organism-based.
Series [3] in a line: Toxicity in female ICR mouse assessed as change in organ coefficient of liver at 20 mg/kg, ip […] (reference value: 0.058+/-0.010). Type of series: organism-based. The following applies: in vivo.
Series [4] concerns N2a. The series is described as follows: Antitumor activity against mouse N2a cells implanted in female ICR mouse model assessed as change in body weight at 20 mg/kg, ip measured upto 8 days (reference value: 25.54 +/-2.19 g). Format: functional. The following applies: time <= 8 day.
Series [5] has as its system N2a. The series is described as follows: Antitumor activity against mouse N2a cells implanted in female ICR mouse model assessed as tumor inhibition rate at 20 mg/kg, ip measured upto 8 days relative to control. Details: scale not given: the % may be the effect or the level left. Conditions: time <= 8 day. Type of series: functional.
Series [6] is described as follows: Toxicity in female ICR mouse assessed as change in organ coefficient of heart at 20 mg/kg, ip […] (reference value: 0.006+/-0.002). Format: organism-based. Conditions: in vivo.
Series [7] can be described thus: Toxicity in female ICR mouse assessed as change in organ coefficient of lung at 20 mg/kg, ip […] (reference value: 0.007+/-0.001). Format: organism-based. The following applies: in vivo.
The nature of series [8]: Toxicity in female ICR mouse assessed as change in organ coefficient of spleen at 20 mg/kg, ip […] (reference value: 0.006+/-0.002). The following applies: in vivo. Type of series: organism-based.
The subject of series [9] is Neuroblastoma cell. The series is described as follows: Antiproliferative activity against human Neuroblastoma cell assessed as inhibition of cell growth incubated for 60 hrs by CCK-8 method. Type of series: functional, cell-based.
Series [10] can be described thus: Antiproliferative activity against human Embryonic lung cell assessed as inhibition of cell growth incubated for 60 hrs by CCK-8 method. Type of series: toxicity, cell-based.

`O=P1(N(CCCl)CCCl)NCCCO1` (stereo not given) [CYCLOPHOSPHAMIDE ANHYDROUS]: the Activity in series [1] came to 0.32 g; in [2], 0.007; in [3], 0.059; in series [4], 27.2 g; in series [5], 64.6%; in series [6] it was 0.006. The Activity in [7] was found to be 0.007; in series [8] it was 0.004.
Consider `N#C[Se]CCCOc1ccc2cc(C(=O)N3N=C(c4ccc(Br)cc4)CC3c3ccc(F)cc3)c(=O)oc2c1` (stereo not given), for which, in series [9], the outcome was Active. In addition, in series [10], the Activity result is recorded as “Non-toxic”.
